Source: ChEMBL document CHEMBL3769332, “Affinity-Based Fluorescence Polarization Assay for High-Throughput Screening of Prolyl Hydroxylase 2 Inhibitors” (ACS Med Chem Lett, 2015)

Biological target: Egl nine homolog 1 (Homo sapiens, UniProt Q9GZT9)
Sequence (Q9GZT9 whole entry): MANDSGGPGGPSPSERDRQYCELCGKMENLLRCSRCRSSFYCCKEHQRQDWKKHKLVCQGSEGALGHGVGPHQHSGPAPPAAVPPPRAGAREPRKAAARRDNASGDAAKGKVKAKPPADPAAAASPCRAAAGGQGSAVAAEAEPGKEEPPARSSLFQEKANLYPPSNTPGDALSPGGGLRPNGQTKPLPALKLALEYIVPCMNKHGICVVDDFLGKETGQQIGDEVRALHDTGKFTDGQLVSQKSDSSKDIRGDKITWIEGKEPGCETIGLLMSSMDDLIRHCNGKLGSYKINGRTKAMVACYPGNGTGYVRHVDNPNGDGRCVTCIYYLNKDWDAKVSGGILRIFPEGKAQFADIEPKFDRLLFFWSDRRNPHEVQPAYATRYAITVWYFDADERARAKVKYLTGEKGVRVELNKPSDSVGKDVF

| IC50 [µM] | SMILES |
| --- | --- |
| 0.89 | Cc1ccc(-c2cnc(C(=O)NCC(=O)O)c(O)c2)cc1 |
| 0.876 | O=c1c(-n2ccnn2)c[nH]n1-c1cc(N2CCOCC2)ncn1 [MOLIDUSTAT] |
